Columns and labels:
Format in all cases: ADME, organism-based
Homo sapiens [1] = assay: (§1) Evaluation of pharmacokinetic parameters for Felodipine following multiple oral administration of Felodipine immediate-release tablets; design: dose 10 mg, route oral; conditions: in vivo, dose 10 mg, dosed compound id 10, dosed compound name FELODIPINE, gender male and female, regimen Once daily, route oral, tissue Plasma
[2] = as §1; design: dose 10 mg, route oral; conditions: human, in vivo, 10 mg, dosed compound id 10, dosed compound name FELODIPINE, gender male and female, regimen Once daily, tissue Plasma
Homo sapiens [3] = assay: (§2) Evaluation of pharmacokinetic parameters for Felodipine following single oral administration of Felodipine immediate or extended-release tablets; design: dose 10 mg, dose 20 mg, route oral; conditions: in vivo, po, dosed compound id 10, dosed compound name FELODIPINE, regimen Single dose, tissue Plasma
[4] = as §2; design: dose 10 mg, dose 20 mg, route oral; conditions: human, in vivo; dosed compound id 10, dosed compound name FELODIPINE, regimen Single dose, route oral, tissue Plasma

Cmin ss (Homo sapiens [1]): 0.5 nM
Cmax [2]: 20 nM
Cmin ss (Homo sapiens [3]; dose 10 mg, gender young male and female): 2 nM
Cmin ss (Homo sapiens [3]; dose 20 mg, gender male and female): 7 nM
Cmax (Homo sapiens [3]; gender male and female): 23 nM
Cmax (Homo sapiens [3]; gender young male and female): 7 nM
Tmax [4]: 2.5 to 5 h
bioavailability [4]: 5%
Compound: CCOC(=O)C1=C(C)NC(C)=C(C(=O)OC)C1c1cccc(Cl)c1Cl (stereo not drawn) [FELODIPINE]
